Positions of bridges follow the written chain, without caps; N, C: chain ends. Non-standard residues stand in square brackets, D forms with d. Residues, ends and D or L forms follow the SMILES beside them. *: point of attachment. X1 = CC[C@H](C)CCCCC(=O)*; Dab = NCC[C@H](N)C(=O)O
Tests used:
[1] = Pharmacokinetic study of colistin in rats after IV colistin sulfate, plasma LC-MS/MS, non-compartmental analysis; details: male, Sprague Dawley, rat, 15 mg/kg
Protocol: (§1) To 100 μl rat plasma sample, 5 μl of 500 μg/ml IS was added and followed by addition of 400 μl of 50:50 (v/v) methanol-TCA (10%). The samples were vortex-mixed for 1 min, rota-mixed for 10 min at 40 rpm and then centrifuged at 12,000 rpm for 10 min. Following centrifugation, 400 µl of the supernatant was collected and re-extracted with solid phase extraction (SPE) using SPE (Oasis HLB 1 cc, 30 mg) cartridges. First, the cartridges were conditioned with 500 μl of methanol then 500 μl of water. After that, 400 μl of the supernatant was transferred and then washed with 500 μl of water. The tubes were changed and then the samples were eluted with 150 μl of methanol: water: formic acid (80:19:1%, v/v/v) solution. The elution step was repeated twice, and then 250 μl of the solution was transferred to the low volume inserts and 20 μl of this solution was injected into the LC-MS system.
Male Sprague Dawley® (MSD) rats (21 weeks ± 3 days of age) with a body weight of 450–550 g [supplied by the Animal Resource Center (ARC), Health Sciences Center (HSC), Kuwait University] were used to estimate the pharmacokinetic profile of colistin. The animals (n = 8) were housed in 12 h/12 h light/dark cycle. […] All the animals were subjected to left jugular vein cannulation, IV drug administration, and subsequent blood sampling. All surgical procedures were carried out under strict aseptic conditions. In addition, all surgical instruments and materials were autoclaved, all solutions were sterile and the surgical procedure was performed with the aid of surgical microscope (Leica wild M690). Animal body temperatures were maintained around 37.6 °C (rectal) by placing the animals on an electronic heating pad throughout the surgical procedure as well as the post-surgical recovery period. About 350 µl of rat blood sample was collected from each animal. From this sample, 50 µl of blood sample was transferred to a capillary tube, sealed with the sealant clay at one end and centrifuged to calculate the Packed Cell Volume (PCV); i.e., Hematocrit. The remaining rat blood sample (300 µl) was centrifuged at 9000 X g for 10 min and aliquots of 100 µl of plasma sample was collected and stored at −70 °C pending analysis.
Colistin was quantified in the biological samples by the present LC-MS/MS method and then the pharmacokinetic parameters (t1/2, CL, Vd, AUC) were estimated by non-compartmental method employing Kinetica® software, version 5.1 (Thermo Fisher Scientific, Waltham, USA).

[2] = Benchtop stability of colistin in rat plasma samples at room temperature; details: 25 °C for 6 hours, n = 4; for Found concentration in benchtop stability study: LC-MS/MS, mean ± S.D., SD
Protocol: (§2) Colistin sulfate was prepared by dissolving 5.5 mg of the powder in 5 ml water to make a stock solution of 1 mg/ml of colistin. PMB sulfate solution of 1 mg/ml was also prepared by dissolving 5.8 mg of PMB sulfate powder in 5 ml water. Both solutions were stored at −70 °C. Calibration standards and quality controls were prepared by spiking different amounts of colistin sulfate stock solution in plasma. Aliquots of colistin sulfate were further diluted to provide standard concentrations of 0.5, 1, 2, 5, 10, 15, and 20 μg/mL (equivalent to: 78, 156, 312, 780, 1560, 2340 and 3120 ng/ml of colistin A and 353, 706, 1412, 3350, 7060, 10590 and 14120 ng/ml of colistin B) whereas, the concentrations of 1.5, 3.5, 7.5 and 17.5 μg/mL (which contained 234, 546, 1170 and 2730 ng/ml of colistin A and 1059, 2471, 5295 and 12355 ng/ml of colistin B) were considered as quality controls. The calibration standards and quality controls were aliquoted (150 μL) into 0.5 ml Eppendorf tubes and stored at −70 °C pending analysis.
as §1
(§3) Various types of stability tests including freeze-thaw stability and long-term stability were assessed. The freeze-thaw stability test was performed by removing the four QC samples out of the storage temperature (−70 °C) and keeping them at room temperature (25 °C) until thawing and then aliquots of the samples were analyzed. After that, the samples were again returned back for freezing in the same storage conditions for 12 to 24 h. The freeze-thaw cycles were repeated five times and 4 replicates of the analytes were assayed. In addition, a long-term stability test was performed to ensure that the stability of the samples for a time that exceeds the interval between the first sample collection and the last sample analysis. Four aliquots of low, medium and high concentrations (QC) were kept for 20 days in the same temperature used to store samples regularly at the lab (−70 °C) then analyzed and compared to the nominal concentration of freshly prepared QC samples. Moreover, the stability in the autosampler (4 °C) was assessed by keeping the processed samples under this condition and assayed periodically at different times for up to 24 hours. In addition, benchtop stability test was performed by keeping the samples at room temperature (25 °C) for six hours and analyzing them during this time. The mean value results of stability tests were calculated and compared to the nominal concentrations.

[3] = Freeze-thaw stability of colistin in rat plasma QC samples; details: −70 °C to 25 °C after 24 hours, five cycles, n = 4; for Found concentration after freeze-thaw: LC-MS/MS, mean ± S.D., SD
Protocol: as §2, §1, §3

[4] = Autosampler stability of processed colistin rat plasma samples at 4 °C; details: 4 °C for 24 hours, n = 4; for Found concentration in autosampler stability study: LC-MS/MS, mean ± S.D., SD
Protocol: as §2, §1, §3

[5] = Long-term stability of colistin in rat plasma QC samples at −70 °C; details: 20 days; for Found concentration after long-term storage: LC-MS/MS, mean ± S.D., n = 5, SD; for Bias% from nominal concentration after long-term storage: n = 5
Protocol: as §2, §1, §3

[6] = rats, cited from earlier work
From the text: Following the validation of the present analytical method, the method was applied to estimate the pharmacokinetic profile of colistin in experimental rats. Choosing the animal species to perform the pharmacokinetic study was based on the similarity of colistin pharmacokinetic profile between animal species and humans. […] The species that has the closest pharmacokinetic profile to humans are rats[43]–[45]. […] This is because of a distribution phase that occurs before the decline in the colistin concentration. This finding is in agreement with previous reports[43],[44],[49]. In the present study, we observed that colistin concentration declined rapidly over 180–240 min which is consistent with earlier findings[45],[49]. […] In the present study, the Vd of colistin was 2.45 ± 1.30 L/kg in ...

[7] = in vivo, cited from earlier work
Protocol: However, colistin sulphate has been reported to be well absorbed after an oral administration in infants. […] The standards and quality control samples concentrations were selected based on the therapeutic range of colistin. The expected colistin serum levels according to the antimicrobial reference laboratory assay service are 5–15 mg/L and 2–4 mg/L for the peak and tough concentrations, respectively. […] Choosing the animal species to perform the pharmacokinetic study was based on the similarity of colistin pharmacokinetic profile between animal species and humans. […] The species that has the closest pharmacokinetic profile to humans are rats[43]–[45].

[8] = rat plasma QC 1.5 μg/mL colistin (nominal 234 ng/ml colistin A, 1059 ng/ml colistin B)
[9] = rat plasma QC 3.5 μg/mL colistin (nominal 546 ng/ml colistin A, 2471 ng/ml colistin B)
[10] = rat plasma QC 7.5 μg/mL colistin (nominal 1170 ng/ml colistin A, 5295 ng/ml colistin B)
[11] = rat plasma QC 17.5 μg/mL colistin (nominal 2730 ng/ml colistin A, 12355 ng/ml colistin B)
[12] = processed rat plasma QC 1.5 μg/mL colistin (nominal 234 ng/ml colistin A, 1059 ng/ml colistin B)
[13] = processed rat plasma QC 3.5 μg/mL colistin (nominal 546 ng/ml colistin A, 2471 ng/ml colistin B)
[14] = processed rat plasma QC 7.5 μg/mL colistin (nominal 1170 ng/ml colistin A, 5295 ng/ml colistin B)
[15] = processed rat plasma QC 17.5 μg/mL colistin (nominal 2730 ng/ml colistin A, 12355 ng/ml colistin B)

## CC[C@H](C)CCCCC(=O)N[C@@H](CCN)C(=O)N[C@H](C(=O)N[C@@H](CCN)C(=O)N[C@H]1CCNC(=O)[C@H]([C@@H](C)O)NC(=O)[C@H](CCN)NC(=O)[C@H](CCN)NC(=O)[C@H](CC(C)C)NC(=O)[C@@H](CC(C)C)NC(=O)[C@H](CCN)NC1=O)[C@@H](C)O [Colistin A, colistin A] (X1-[Dab]T[Dab][Dab][Dab][dL]L[Dab][Dab]T; lactam 4-C)
[1]
  level at 0.5 h: 4110 ng/mL
[2]; [8]
  Found concentration in benchtop stability study: 120.275 ± 50.32 ng/mL
  Bias% from nominal concentration in benchtop stability study: −48.6%
[2]; [9]
  Found concentration in benchtop stability study: 592.47 ± 488.56 ng/mL
  Bias% from nominal concentration in benchtop stability study: 8.51%
[2]; [10]
  Found concentration in benchtop stability study: 1047.6 ± 202.94 ng/mL
  Bias% from nominal concentration in benchtop stability study: −10.46%
[2]; [11]
  Found concentration in benchtop stability study: 5045 ± 3076.10 ng/mL
  Bias% from nominal concentration in benchtop stability study: 84.8%
[3]; [8]
  Found concentration after freeze-thaw: 265.4 ± 35.10 ng/mL
  Bias% from nominal concentration after freeze-thaw: 13.42%
[3]; [9]
  Found concentration after freeze-thaw: 615.27 ± 30.29 ng/mL
  Bias% from nominal concentration after freeze-thaw: 12.69%
[3]; [10]
  Found concentration after freeze-thaw: 1208.93 ± 77.51 ng/mL
  Bias% from nominal concentration after freeze-thaw: 3.33%
[3]; [11]
  Found concentration after freeze-thaw: 2551.83 ± 177.97 ng/mL
  Bias% from nominal concentration after freeze-thaw: −6.53%
[4]; [12]
  Found concentration in autosampler stability study: 231.18 ± 6.22 ng/mL
  Bias% from nominal concentration in autosampler stability study: −1.21%
[4]; [13]
  Found concentration in autosampler stability study: 516.95 ± 53.28 ng/mL
  Bias% from nominal concentration in autosampler stability study: −5.32%
[4]; [14]
  Found concentration in autosampler stability study: 1034.9 ± 38.64 ng/mL
  Bias% from nominal concentration in autosampler stability study: −11.55%
[4]; [15]
  Found concentration in autosampler stability study: 2917.93 ± 341.07 ng/mL
  Bias% from nominal concentration in autosampler stability study: 6.88%
[5]; [8]
  Found concentration after long-term storage: 237.24 ± 5.64 ng/mL
  Bias% from nominal concentration after long-term storage: 1.39%
[5]; [9]
  Found concentration after long-term storage: 520.76 ± 19.46 ng/mL
  Bias% from nominal concentration after long-term storage: −4.62%
[5]; [10]
  Found concentration after long-term storage: 1134.44 ± 26.11 ng/mL
  Bias% from nominal concentration after long-term storage: −3.04%
[5]; [11]
  Found concentration after long-term storage: 2719 ± 50.20 ng/mL
  Bias% from nominal concentration after long-term storage: −0.40%
[6]; Sivanesan and co-workers, ref 45 (sentence ends with 41)
  CL of the individual components: 2.75 ± 0.54 mL/min/kg
[6]
  t1/2 of the major components: 1.37 ± 0.515 h

## colistimethate sodium [CMS]
[7]; human
  Vd at steady state: 0.34 ± 0.10 L/kg
  t1/2: 2.07 ± 0.867 h
[7]
  absorption after intramuscular injection: rapidly absorbed
  absorption through burns, inflamed skin or mucosal membranes: not absorbed
  absorption through the GIT: poorly absorbed

## colistin sulphate
[7]; po
  absorption after oral administration in infants: well absorbed
  absorption from the gastrointestinal tract (GIT): poorly absorbed
[7]
  maximum serum concentration: 0.13 mg/L
  time of maximum serum concentration: 1.5 h
